Experimental data taken from ChEMBL document CHEMBL3856213, “neo-Clerodane diterpenoids from Scutellaria barbata mediated inhibition of P-glycoprotein in MCF-7/ADR cells” (Eur J Med Chem, 2016).
Calls of active or inactive are those of the source. The calls are words filed in the database; no cut-off is given here.

How the values were obtained:
[1] = Cytotoxicity against human MCF7 cells assessed as inhibition of cell survival rate at 50 uM after 48 hrs by MTT assay relative to control; type: functional; settings: MCF7, 48 h
NCI/ADR-RES [2] = experiment: Inhibition of P-gp in human MCF7/ADR cells assessed as potentiation of adriamycin-induced cytotoxic activity at 20 uM after 48 hrs by MTT assay relative to control; type: cell-based
NCI/ADR-RES [3] = experiment: Reversal index, ratio of IC50 for human MCF7/ADR cells to IC50 for human MCF7 cells; type: functional
[4] = Cytotoxicity against human MCF7 cells assessed as inhibition of cell survival rate after 48 hrs by MTT assay; type: functional, cell-based; settings: MCF7, 48 h
[5] = Cytotoxicity against human MCF7/ADR cells assessed as inhibition of cell survival rate after 48 hrs by MTT assay; type: functional, cell-based; settings: NCI/ADR-RES
NCI/ADR-RES [6] = experiment: Inhibition of P-gp in human MCF7/ADR cells assessed as increase in intracellular adriamycin accumulation at 20 uM after 3 hrs by flow cytometry; type: cell-based
NCI/ADR-RES [7] = experiment: Inhibition of P-gp in human MCF7/ADR cells assessed as increase in intracellular rhodamine123 accumulation at 10 to 20 uM incubated for 4 hrs in dark condition by flow cytometry; type: cell-based
NCI/ADR-RES [8] = experiment: Inhibition of P-gp in human MCF7/ADR cells assessed as increase in intracellular adriamycin accumulation at 10 uM after 3 hrs by flow cytometry relative to control; type: cell-based
NCI/ADR-RES [9] = experiment: Inhibition of P-gp in human MCF7/ADR cells assessed as potentiation of adriamycin-induced cell death by measuring dead cell levels at 10 uM after 48 hrs by 7-AAD staining-based flow cytometry; set-up: scale not given: the % may be the effect or the level left

Row | Structure (SMILES) | inhibition at 50 µM [1] [%] | fold change (FC) (NCI/ADR-RES [2]) | inhibition (NCI/ADR-RES [6]) | inhibition (NCI/ADR-RES [7]) | further results
1 | CC1=CCC[C@H]2[C@@]1(C)[C@@H](OC(=O)c1cccnc1)[C@H](O)[C@](C)(O)[C@]2(C)CCC1=C(O)C(=O)OC1 | 28.5 | 11.5 | – | – | –
2 | CC(=O)OC(C(=O)O[C@H]1[C@H](OC(=O)c2cccnc2)[C@@]2(C)C(C)=CCC[C@@H]2[C@@](C)(CCC2=C(O)C(=O)OC2)[C@@]1(C)O)C(C)C (stereo partly specified) | 37.6 | 3 | – | – | –
3 | COc1cccc2c1C(=O)c1c(O)c3c(c(O)c1C2=O)C[C@@](O)(C(=O)CO)C[C@@H]3O[C@H]1C[C@H](N)[C@H](O)[C@H](C)O1.Cl [DOXORUBICIN HYDROCHLORIDE] | – | – | – | – | Ratio IC50 (NCI/ADR-RES [3]): 58.8; IC50 [4]: 1 µM; IC50 [5]: 58.8 µM
4 | CC1=CCC[C@H]2[C@@]1(C)[C@@H](OC(=O)c1cccnc1)[C@H](OC(=O)c1ccccc1)[C@](C)(O)[C@]2(C)/C=C/C1=CC(=O)OC1 | 23.8 | 10.1 | – | – | –
5 | CC1=CC[C@@H](OC(=O)c2cccnc2)[C@H]2[C@@]1(C)[C@@H](OC(=O)c1cccnc1)[C@H](O)[C@]1(C)O[C@@]3(CC[C@]21C)COC(=O)C3 | 15.1 | 11.4 | Active | Active | inhibition (NCI/ADR-RES [8]): Active
6 | COc1ccc(CCN(C)CCCC(C#N)(c2ccc(OC)c(OC)c2)C(C)C)cc1OC (stereo unspecified) | – | 20.4 | – | – | Activity (NCI/ADR-RES [9]): 46.7%; fold change (FC) (NCI/ADR-RES [8]): 2.1
7 | CC1=CCC[C@H]2[C@@]1(C)[C@@H](OC(=O)c1cccnc1)[C@H](OC(=O)c1ccccc1)[C@](C)(O)[C@]2(C)/C=C\C1=CC(=O)OC1 | 17.4 | 9 | – | – | –
8 | CC1=CC[C@@H](OC(=O)c2cccnc2)[C@H]2[C@@]1(C)[C@@H](OC(=O)c1cccnc1)[C@H](OC(=O)c1cccnc1)[C@]1(C)O[C@]3(CC[C@]21C)COC(=O)C3 | 40.6 | 29.6 | Active | Active | fold change (FC) (NCI/ADR-RES [8]): 2.27
9 | CC1=CC[C@@H](O)[C@H]2[C@@]1(C)[C@@H](OC(=O)c1cccnc1)[C@H](O)[C@]1(C)O[C@]3(COC(=O)C3O)C[C@H](OC(=O)c3cccnc3)[C@]21C (relative stereo) | 19.5 | 7.9 | – | – | –
10 | CC(=O)O[C@H]1[C@H](OC(=O)c2cccnc2)[C@@]2(C)C(C)=CC[C@@H](OC(=O)c3cccnc3)[C@@H]2[C@@]2(C)CC[C@@]3(COC(=O)C3)O[C@@]12C | 35.7 | 37.7 | Active | Active | fold change (FC) (NCI/ADR-RES [8]): 2.36
11 | CC(=O)O[C@@H](CC1=C(O)C(=O)OC1)[C@]1(C)[C@H]2CCC=C(C)[C@]2(C)[C@@H](OC(=O)c2cccnc2)[C@H](OC(=O)c2cccnc2)[C@]1(C)O | 17.1 | 3.3 | – | – | –
12 | CC(=O)O[C@H]1[C@H](OC(=O)c2cccnc2)[C@@]2(C)C(C)=CC[C@@H](OC(=O)c3cccnc3)[C@@H]2[C@@]2(C)CC[C@]3(COC(=O)C3)O[C@@]12C | 28.5 | 16.7 | Active | Active | inhibition (NCI/ADR-RES [8]): Active
13 | CC1=CC[C@@H](OC(=O)c2cccnc2)[C@H]2[C@@]1(C)[C@H]1O[C@@](O)(C(C)C)C(=O)O[C@@H]1[C@]1(C)O[C@@]3(CC[C@]21C)COC(=O)C3 | 20.6 | 12.2 | Active | Active | inhibition (NCI/ADR-RES [8]): Active
14 | CC(=O)O[C@H]1[C@H](OC(C)=O)[C@]2(C)O[C@]3(CC[C@]2(C)[C@H]2[C@H](OC(=O)c4cccnc4)CC=C(C)[C@]12C)COC(=O)C3 | 19.5 | 13 | – | Active | –
